Assay results reported in patent publication US20050209271A1, “Form of renzapride hydrochloride hydrate and uses thereof” (priority 2003, published 2005).

Tests used:
Assay type in all cases: physicochemical
[1] = Storage stability at 25° C./60% relative humidity; conditions: 25° C./60% RH
Protocol: Samples of Form II renzapride hydrochloride hydrate were placed in storage under conditions of 25° C./60% relative humidity.

[2] = Dynamic vapour sorption (DVS), adsorption/desorption cycles between 0 and 90% RH
Description: Each sample was placed into a sample pan and loaded into the DVS system. An initial weight reading was taken. The sample was then exposed to an atmosphere with a relative humidity (RH) of 0% to dry the sample and a dry weight reading taken. The sample was exposed to an adsorption/desorption cycle between 0 and 90% RH in 10% RH intervals. The change in weight data was fitted to an exponential expression that was used to automatically determine the end point of each stage, which then triggers the next increase/decrease in relative humidity. For the DVS traces, the stepped lines represent the relative humidity (RH) level in the Chamber. The curved line represents the weight change in the sample. The RH was controlled automatically and changes once the rate of change in weight of the sample is small.

[3] = Particle size distribution; conditions: 5 kg batch
Protocol: The Particle Size Distribution (PDS) of renzapride is measured according to the method detailed below. [table] • Vibration feed rate: 40% • Air pressure: 3.5 Bar Single measurement of each batch performed in triplicate.

[4] = Intrinsic dissolution rate (IDR) of compressed discs in a static dissolution system
Protocol: The samples were prepared as discs. Each disc was prepared by compressing the sample for 5 minutes at 2 tons of pressure. Each disc was transferred to a static dissolution system, whereby one surface of the disc is exposed to the dissolution medium. Six discs were prepared from each batch of material for duplicate intrinsic dissolution rate (IDR) determinations at pHs 2.2, 4.0 and 7.0. Dissolution samples (0.8 ml) were withdrawn at 5 minute intervals up to 60 minutes and samples were analysed. The amount of drug released (mg) is divided by the surface area of the disc (0.5 cm^2) to obtain an amount per unit area (mg cm^−2). The average of the duplicate determinations is plotted as a function of time (minutes). The IDR (mg cm^−2 minutes^−1) is given by the gradient (determined by linear regression) over the linear range of the release profile. When the dissolution into solution is deemed independent of pH, a pH independent IDR is calculated. The pH independent IDR is calculated by averaging the data for each time point at all of the pHs studied and calculating the linear regression on at least the first 5 data points. All IDR values are reported with the error encompassing the upper and lower 95% confidence limits of the linear regression. Linear regression analysis of the IDR data used all of the data points, as the release profiles are linear.

COc1cc(N)c(Cl)cc1C(=O)NC1CCN2CCCC1C2.Cl (centres unmarked) [Form II, renzapride hydrochloride hydrate]
Description ([1]; t = 0 months): White
Water content (by Karl Fisher) ([1]; t = 0 months): 8.9%(w/w)
Description ([1]; t = 6 months): White
Water content (by Karl Fisher) ([1]; t = 6 months): 8.6%(w/w)
Description ([1]; t = 12 months): White
Water content (by Karl Fisher) ([1]; t = 12 months): 8.8%(w/w)
Description ([1]; t = 18 months): White
Water content (by Karl Fisher) ([1]; t = 18 months): 8.8%(w/w)
Description ([1]; t = 24 months): White
Water content (by Karl Fisher) ([1]; t = 24 months): 8.8%(w/w)
moisture taken up at 90% RH (DVS) ([2]; chamber at 90% RH): ~9.5 % (w/w)
uptake in moisture at 10% RH (DVS) ([2]; exposure to 10% RH, initial uptake): ca. 9 % (w/w)
Span = (d(0.9) − d(0.1))/d(0.5) [3]: 2.1
d (0.1) [3]: 11.5 μm
d(0.5) [3]: 47.1 μm
d(0.9) [3]: 109.0 μm
IDR independent (pH independent IDR) ([4]; data averaged over all pHs studied, error = 95% confidence limits): 5.7 ± 0.3 mg/min/cm^2
IDR pH 2.2 ([4]; pH 2.2, error = 95% confidence limits of linear regression): 5.5 ± 0.2 mg/min/cm^2
IDR pH 4.0 ([4]; pH 4.0, error = 95% confidence limits of linear regression): 5.7 ± 0.2 mg/min/cm^2
IDR pH 7.0 ([4]; pH 7.0, error = 95% confidence limits of linear regression): 5.9 ± 0.3 mg/min/cm^2
